Experimental data taken from US8551727B2, “Gold nanoparticle based protease imaging probes and use thereof” (Korea Institute of Science and Technology, priority 2007, dated 2013).

Tests used:
MMP-13 = MMP-13 (Homo sapiens, UniProt P45452); assay: Fluorescence exhibition due to enzyme degradation of gold nanosensor by activated MMP-13 (96-well, Kodak Image Station); type: biochemical; details: state (c), 37° C., 2 hours
Protocol: (§1) A gold nanosensor was reacted respectively with MMP-2 and MMP-13 each activated in the 96-well, a scramble peptide (i.e., a peptide having the same amino acid contained structure but having different sequence so as not to act as a substrate with respect to a specific enzyme) and MMP-2/MMP-2 inhibitor at temperature of 37° C. for 2 hours, and thereafter a fluorescence exhibition due to the enzyme degradation was observed.
(§2) First, in order to activate the MMP-2 and MMP-13, the MMPs were added into a TCNB mixture (containing 0.1M of tris, 5 mM of calcium chloride, 200 mM of NaCl and 0.1% of Brij) having 2.5 mmol/L of p-aminophenyl mercuric acid added thereto, so as to be reacted at temperature of 37° C. for 1 hour. The activated MMP-2 and MMP-13 were reacted with the gold nanosensor in 200 μL of mixture in each well at temperature of 37° C. for 2 hours, and thereafter the degree of the fluorescence was observed using Kodak Image Station 4000MM Digital Imaging System built in a […] (Charge Coupled Device) camera.

[1] = system: Invasive squamous cell carcinoma (SCC7); assay: Real-time imaging of cancerous tissue in cancer animal models; type: in vivo, C3H/HeN mouse; details: 100 ul
Protocol: Invasive squamous cell carcinoma (SCC7) was injected into C3H/HeN mouse to create a cancer animal model. For the cancerous tissue with a size of more than 5 mm, the MMP-2 gold nanosensor was injected into the cancerous tissue, to thereafter estimate the possibility of imaging the cancer cell.
The invasive squamous cell carcinoma (SCC7) is known as a cancer cell expressing a great amount of MMP-2. The experiment was performed with respect to three animal test groups including a normal mouse having MMP-2 gold nanosensor (100 ul, 10 nM/mL) injected thereinto and a cancer mouse also having MMP-2 gold nanosensor (100 ul, 10 nM/mL) injected thereinto, and a cancer mouse having both MMP-2 gold sensor and MMP-2 inhibitor injected thereinto.

[2] = system: cancerous tissue overexpressing MMP-2 (SCC7); assay: Fluorescence of gold nanosensor in removed cancerous tissue; type: in vivo, C3H/HeN mouse
Protocol: Depending on whether the MMP-2 inhibitor was injected into the cancerous tissue overexpressing MMP-2, the fluorescence of the MMP-2 gold nanosensor was observed.

[3] = Particle analysis of MMP selective gold nanosensor (TEM and light scattering); type: physicochemical
Protocol: For the gold nanoparticle derivatives prepared in Example 1-3, the size of nanoparticle was measured using transmission electron microcopy (TEM) and light scattering (Brookhaven Instrument).

MMP-2 = biological target: T1, MMP-2 (Homo sapiens, UniProt P08253); assay: Fluorescence exhibition due to enzyme degradation of gold nanosensor by activated MMP-2 (96-well, Kodak Image Station); type: biochemical; details: 37° C., 2 hours
T1 sequence (P08253 110-660): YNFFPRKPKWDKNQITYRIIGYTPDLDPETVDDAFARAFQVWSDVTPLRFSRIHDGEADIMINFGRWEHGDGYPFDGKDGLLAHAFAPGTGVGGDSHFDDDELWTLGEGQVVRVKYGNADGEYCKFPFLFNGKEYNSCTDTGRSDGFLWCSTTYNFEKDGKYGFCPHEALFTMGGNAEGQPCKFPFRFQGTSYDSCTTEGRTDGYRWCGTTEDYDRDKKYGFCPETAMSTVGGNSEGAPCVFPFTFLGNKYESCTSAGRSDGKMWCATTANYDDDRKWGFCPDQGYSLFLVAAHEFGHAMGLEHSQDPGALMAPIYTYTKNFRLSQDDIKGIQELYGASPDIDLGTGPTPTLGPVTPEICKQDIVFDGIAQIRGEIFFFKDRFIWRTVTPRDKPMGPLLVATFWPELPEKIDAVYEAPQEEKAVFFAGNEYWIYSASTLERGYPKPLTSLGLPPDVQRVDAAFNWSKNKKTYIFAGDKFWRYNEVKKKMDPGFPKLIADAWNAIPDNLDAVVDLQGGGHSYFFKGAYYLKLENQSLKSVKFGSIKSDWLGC
Protocol: as §1, §2
The MMP gold nanosensor was used to quantitatively analyze the concentration of MMP-2 protease. In more detail, according to the same experimental way to that in Example 2-2, each of activated MMP-2s having concentrations of 0, 1.4, 3.5, 7 and 14 nmol/L, respectively, was added to the MMP-2 gold nanosensor to be reacted at temperature of 37° C. for 2 hours, and then the degree of the fluorescence was observed using the Kodak Image Station 4000MM Digital Imaging System.

For “Cy5.5-GPLGLFARC-Gold [MMP selective gold nanosensor]”, the “fluorescence with respect to MMP-13” value (MMP-13) was “rarely exhibits fluorescence”, the “fluorescence in mouse with cancer cell” value ([1]; Au NP (SCC7 tumor), 10 nM/mL injected into cancerous tissue) was “emitted high fluorescence as time elapses” and the “fluorescence in normal mouse” value ([1]; normal mouse without the cancer cell, 10 nM/mL injected) was “did not exhibit fluorescence”. The “fluorescence in removed cancerous tissue treated with MMP-2 inhibitor” value ([2]; cancerous tissue (+inh)) was “remarkably low fluorescence”, the “fluorescence in removed cancerous tissue not treated with MMP-2 inhibitor” value ([2]; cancerous tissue (−inh)) was “remarkably high fluorescence” and the “size of nanoparticle (average)” value [3] was “approximately 20 nm”. For the same substance, the “fluorescence, MMP-2 added” value (MMP-2; MMP-2 added) was “bright fluorescence was exhibited”, the “fluorescence versus MMP-2 concentration” value (MMP-2; activated MMP-2 at 0, 1.4, 3.5, 7 and 14 nmol/L) was “increased in proportion to the concentration of the added MMP-2 enzyme” and the “fluorescence, MMP-2 not added” value (MMP-2; state (a), no MMP-2) was “fluorescence quenched”. The “fluorescence in the reaction with MMP-2 inhibitor” value (MMP-2; state (e), MMP-2/MMP-2 inhibitor) was “no fluorescence is emitted”.
